Structures are written as SMILES. “Also recorded” adds a separate entry of the source.

Experimental findings from patent US10669227B2 (THE RESEARCH FOUNDATION OF STATE UNIVERSITY OF NEW YORK, priority 2009, dated 2020) are described below.

Data set [1] relates to MMP-2. Kind of data set: Diabetic rat, gingiva gelatinase by gelatin zymography (MMP-2). It is filed as in vivo. To be noted: diabetic rats, oral daily, 3 weeks. On the procedure:
(§1) At the end of the treatment protocol, the rats were sacrificed, blood samples were collected, and whole skin (except over limbs) and qingiva were dissected (the skin, because of ample quantities of tissue were analyzed for each rat separately; the gingiva, because of the tiny amounts that could be harvested per rat, were pooled for each experimental group, as prescribed previously for tetracycline studies (30). In addition, the jaw bones were collected, defleshed, and bone loss around the teeth analyzed morphometrically as described previously (42, 43).
This appearance of MMP-9 only in the gingiva (FIG. 10), but not the skin (FIG. 12), of the diabetic rats is likely the result of the oral bacteria inducing inflammation in the gingiva of these immune-suppressed UD rats, whereas the skin is not exposed to this onslaught of bacteria particularly the anaerobic gram-negative bacteria in the mouth that cause periodontal and gingival inflammation.

For data set [2], the system named is NFκB activation. As to the kind of experiment: NFκB activation in human monocytes in cell culture. The format is cell-based. To be noted: Monocyte.
The test system of data set [3] is p38 MAP kinase activation. As to the kind of experiment: p38 MAP kinase activation, preliminary studies. It is filed as cell-based.
For data set [4], the system named is alveolar bone loss. Kind of data set: Diabetic rat, alveolar bone loss, morphometric. It is filed as in vivo. To be noted: 500 mg/kg oral, 3 weeks. How it is done: as §1
Alveolar bone loss (the signature pathologic event in inflammatory periodontal disease) was assessed in the defleshed jaws of the compound 1-treated (TX) and untreated rats.

Data set [5] has as its system MMP-2. Kind of data set: Diabetic rat, MMP-2 in skin by ELISA. The format is in vivo. To be noted: both low and high doses, 3 weeks. How it is done:
as §1

The test system of data set [6] is PC-3 human prostate cancer cells. As to the kind of experiment: MMP-9 in conditioned media of PC-3 cells, gelatin zymography and Western blot. The format is cell-based. The settings on record: 10 μM and 20 μM, 48 hr, serum-free. How it is done: Compound 1 was evaluated in a cell culture model of cancer. […] After the incubation, aliquots of the conditioned media were assayed for MMP-9 (gelatinase B) by either of two techniques, gelatin zymography (in the presence of 2 or 10 mMCa^++) and Western blot (both assays used purified MMP-9, 92 kDa gelatinase, as a standard).
For orientation: In western blotting, separated proteins are transferred to a membrane and probed.

The test system of data set [7] is IL-1β. Kind of data set: Inhibition of IL-1β production by LPS-stimulated monocytes. The settings on record: Homo sapiens, Monocyte, 18 h, read-out: % Inhibition of IL-1β produced by stimulated Monocytes with LPS @ 18 h. It is filed as cell-based. How it is done:
Briefly, human peripheral blood monocytes (HMs) were isolated from a leukocyte concentrate by density gradient centrifugation (Lymphoprep) and the isolated HMs cultured (2 h, 37° C.) to remove non-adherent cells. The adherent HMs wore cultured for 18 h (1×10^6 cells/well, 24-well plates)±endotoxin (LPS)±different compounds dissolved in DMSO (the final concentration of DMSO in the RPMI serum-free culture media with Pen./Strep. antibiotics was no greater than 0.5%). After incubation, the proinflammatory cytokines, TNFα, […], MCP-1 and IL-6 were measured in the conditioned media by ELISA and cytotoxicity was assessed by measuring the absorbance (490 nm) of formazan produced by reduction of MTS. The HMs alone±0.1-0.5% DMSO produced minimal levels of these pro-inflammatory cytokines. However, addition of 100 ng/ml or 10 μg/ml of LPS both dramatically stimulated cytokine production.

Data set [8] concerns neonatal rat ventricular myocytes. Kind of data set: Hydrogen peroxide induced LDH release. It is filed as cell-based. To be noted: 10 μM, H2O2 100 μM, 24 h. On the procedure: Neonatal rat ventricular myocytes, serum starved for 24 h, were treated with the inhibitors 1 h prior to the addition of 100 μM of hydrogen peroxide (Sigma). LDH release in the conditioned media was quantified using CytoTox-ONE Homogeneous Membrane Integrity Assay reagent (Promega) at the indicated time points.
(LDH in the medium is a marker of cell lysis.)

Data set [9] is described as follows: Solubility in aqueous solutions. It is filed as physicochemical. To be noted: comparative.

In general, inhibition refers to the change of the read-out against control, counted positive when it falls. For `COC(=O)C(C(=O)/C=C/c1ccc(O)c(OC)c1)C(=O)/C=C/c1ccc(O)c(OC)c1` [Compound 1, 1,7-Bis(4-hydroxy-3-methoxyphenyl)-4-methoxycarbonylhepta-1E,6E-dien-3,5-dione], the “Pro- and activated-forms of MMP-2 in gingiva” value in data set [1] is reported as “neither diabetes nor compound 1 appeared to have a detectable effect”. The inhibition at 2 µM is 91% in [2] (CRP/oxid-LDL Complex), 24% in data set [2] (Endotoxin (LPS)) and 41% in [7] (2 uM). Also, the inhibition at 10 µM in data set [2] (CRP/oxid-LDL Complex) turned out to be 100%; in data set [2] (Endotoxin (LPS)), 85%. Further, the “Effect on p38 MAP kinase activation” value in data set [3] is on record as “little/no effect”. In addition, the “Reduction in alveolar bone loss vs untreated groups” value in data set [4] is given as “less effective”. For the same compound, the “Reduction of elevated MMP-2 level in skin” value in [5] was 28%. Besides, the “MMP-9 production and/or activity in conditioned media” value in data set [6] was “inhibited the production and/or activity of MMP-9”. Also, the inhibition at 25 µM in data set [7] (25 uM) was 100%. Besides, in data set [7] (50 uM), the inhibition at 50 µM came out at 100%. The LDH release entry in [8] was “less dramatic effect”. Besides, the Solubility entry in [9] is listed as “improved solubility; also recorded: more soluble than the insoluble natural product curcumin”.
